{"source": "patent US20230201301A1", "about": "(priority 2020, published 2023)", "key": {"[1]": {"system": "sTREM-1", "design": "species or system transgenic mice B6.Cg-Tg(K18-ACE2)2Prlmn/J", "details": "mouse, in vivo, ip"}, "[2]": {"system": "cytokines/chemokines", "design": "species or system transgenic mice B6.Cg-Tg(K18-ACE2)2Prlmn/J", "details": "mouse, in vivo"}, "[3]": {"system": "SARS-CoV-2", "type": "in vivo, transgenic mice B6.Cg-Tg(K18-ACE2)2Prlmn/J"}}}
{"sequence": "LQEEDTGEYGCV (TLT-1 peptide) [LR12]", "values": [{"measurement": "plasma sTREM-1 level (median)", "setting": "[1]", "value": 132.3, "unit": "pg/mL"}, {"measurement": "IP-10 plasma concentration vs vehicle", "setting": "[2]", "value": "decrease"}, {"measurement": "IFNα plasma concentration vs vehicle", "setting": "[2]; ip", "value": "decrease"}, {"measurement": "IL-6 plasma concentration vs vehicle", "setting": "[2]; ip", "value": "decrease"}, {"measurement": "IL-10 plasma concentration vs vehicle", "setting": "[2]; ip", "value": "increase"}, {"measurement": "bodyweight loss day 0 to day 10", "setting": "[3]; 2 mg i.p. at t0+1 h, 24, 48, 72, 96 h, vs vehicle, LOCF, FIG. 2-3", "value": "significant reduced bodyweight loss"}, {"measurement": "mortality (survival D0 to D10)", "setting": "[3]; 2 mg i.p. at t0+1 h, 24, 48, 72, 96 h, vs vehicle, N=16 per treatment group, FIG. 1", "value": "significant reduction in mortality"}, {"measurement": "mean respiratory score", "setting": "[3]; scale 0 (normal respiration) to 5 (dead mouse), up to day 10, 2 mg i.p., vehicle group 5, FIG. 5", "value": 3}, {"measurement": "mean clinical score", "setting": "[3]; scale 1 (healthy mouse) to 5 (dead mouse), up to day 10, 2 mg i.p., vehicle group 5, FIG. 4", "value": 3.5}]}
